Experimental data from article PMC8227885 (Viruses, 2021).

Biological target: SARS-CoV-2 RBD:ACE2 (UniProt P0DTC2+Q9BYF1)
Assay: biochemical
Design: species or system SARS-CoV-2 (RBD); human (ACE2)

SARS-CoV-2 RBD:ACE2, sequence (Q9BYF1 18-615, one chain of several): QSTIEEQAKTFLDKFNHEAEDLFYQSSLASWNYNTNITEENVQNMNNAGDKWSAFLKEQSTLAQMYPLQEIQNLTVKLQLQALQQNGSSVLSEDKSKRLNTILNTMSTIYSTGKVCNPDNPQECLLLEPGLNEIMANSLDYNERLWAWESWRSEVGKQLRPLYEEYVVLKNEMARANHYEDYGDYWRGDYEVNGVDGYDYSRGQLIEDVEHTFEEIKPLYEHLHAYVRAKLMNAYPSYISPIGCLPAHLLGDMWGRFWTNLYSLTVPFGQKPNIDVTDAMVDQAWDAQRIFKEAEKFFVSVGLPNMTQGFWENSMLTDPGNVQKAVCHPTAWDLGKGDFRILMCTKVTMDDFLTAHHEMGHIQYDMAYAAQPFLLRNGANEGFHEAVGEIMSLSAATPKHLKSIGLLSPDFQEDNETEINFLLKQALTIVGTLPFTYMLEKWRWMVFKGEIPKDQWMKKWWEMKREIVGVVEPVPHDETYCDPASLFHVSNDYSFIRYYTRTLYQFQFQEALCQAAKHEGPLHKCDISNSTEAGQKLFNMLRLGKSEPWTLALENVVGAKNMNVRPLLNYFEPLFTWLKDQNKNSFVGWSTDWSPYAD

O=c1c(O)cc([C@H]2Oc3cc(O)cc(O)c3C[C@H]2O)cc2c([C@H]3Oc4cc(O)cc(O)c4C[C@H]3O)cc(O)c(O)c12 [Theaflavin]
IC50: 41.7 µM | effect on SRAE2-BS activity (suppression): significantly suppressed SRAE2-BS activity
